According to patent US20170000129A1, “METHOD FOR TREATING MINERAL SLURRIES WITH A BIOCIDE” (priority 2015, published 2017):

Tests used:
[1] = system: bacteria from a contaminated kaolin product; assay: Kaolin slurry preservation test, challenge: on day 20 samples inoculated with ~10^5 cfu/ml bacteria from a contaminated kaolin product; type: cell-based
Procedure: (§1) In the comparative testing, dry kaolin was mixed with water to achieve a 65% solid slurry material. This material contained no biocide. The slurry was then split into 200 gram aliquots and dosed with different biocides at different concentration as shown in Tables 1-3. All samples were kept at 50° C. until the end of the testing, which was up to 28 days.
(§2) The protocol for the testing of each sample is as follows: • 1) dosed with a recorded level of biocide; • 2) mixed for 24 hours contact time and plated using standard method agar for bacterial growth; • 3) remixed daily for 1 hour and retested for bacterial growth at Day 3; • 4) remixed daily for 1 hour and retested for bacterial growth at Day 7; • 5) remixed daily for 1 hour and retested for bacterial growth at Day 14; • 6) on day 20, samples were split into two containers: one container was inoculated (or challenged) with ˜10^5 cfu/ml bacteria, the other was left “as treated”, the challenge material was obtained from a contaminated kaolin product and is assumed to be representative of the types of bacteria that are seen in the kaolin industry, and the two sets of samples were prepared for Day 21 testing; • 7) both sets were remixed daily for 1 hour and retested for bacterial growth at Day 21; and • 8) both sets remixed daily for 1 hour and retested for bacterial growth at Day 28.

[2] = system: bacterial growth in kaolin slurry; assay: Kaolin slurry preservation test: biocide-dosed 65% solids slurry plated on standard method agar, samples as treated; type: cell-based, bacteria; conditions: for biocide efficacy compared with known biocides: Table 2, up to 28 days
Procedure: as §1
A number of different and known biocides were used in the study and they include glutaraldehyde (glute), 1,2 benzithiazolin-3-one (BIT), tetrahydro-3-5-methyl-2H-1,3,5-thiadizine-2-thione (thione), isothiazoline (ISO), bronopol (BNPD) or orthophenyl phenate (OPP). For shorthand purposes, the study refers to the tradename of the biocide, which is found in the above listing of the biocides. Metam sodium is designated as SMDC and MDTCMA is used without change
as §2
Different contact times were used to see how quickly the bacterial population was effected by the biocide.

CNC(=S)[S-].[Na+] [42% SMDC, sodium N-methyldithiocarbamate]
Log Red, 21 day Challenge ([1]; 500 ppm, Table 2): 3
Log Red, 28 day Challenge ([1]; 500 ppm, Table 2): 3
cfu/mL, 21 day Challenge ([1]; 500 ppm, Table 2): 105,000 cfu/mL
cfu/mL, 28 day Challenge ([1]; 500 ppm, Table 2): 16,000 cfu/mL
Log Red, 21 day Challenge ([1]; 1000 ppm, Table 2): 3
Log Red, 28 day Challenge ([1]; 1000 ppm, Table 2): 3
cfu/mL, 21 day Challenge ([1]; 1000 ppm, Table 2): 59,000 cfu/mL
cfu/mL, 28 day Challenge ([1]; 1000 ppm, Table 2): 16,000 cfu/mL
Log Red, 21 day Challenge ([1]; 1000 ppm, Table 3): 2
Log Red, 28 day Challenge ([1]; 1000 ppm, Table 3): 1
cfu/mL, 21 day Challenge ([1]; 1000 ppm, Table 3): 384,000 cfu/mL
cfu/mL, 28 day Challenge ([1]; 1000 ppm, Table 3): 3,000,000 cfu/mL
Log Red, 21 day Challenge ([1]; 1500 ppm, Table 3): 5
Log Red, 28 day Challenge ([1]; 1500 ppm, Table 3): 5
cfu/mL, 21 day Challenge ([1]; 1500 ppm, Table 3): 100 cfu/mL
cfu/mL, 28 day Challenge ([1]; 1500 ppm, Table 3): 100 cfu/mL
biocide effectiveness in challenge testing ([1]; Table 3, challenge testing): comparable to thione
biocide effectiveness after inoculation, overall result of the studies ([1]; after inoculation): most effective biocides
Log Red, contact time 1 day ([2]; 500 ppm, Table 1): 0
Log Red, contact time 3 day ([2]; 500 ppm, Table 1): 1
Log Red, contact time 7 day ([2]; 500 ppm, Table 1): 3
cfu/mL, contact time 1 day ([2]; 500 ppm, Table 1): 24,340,000 cfu/mL
cfu/mL, contact time 3 day ([2]; 500 ppm, Table 1): 2,600,000 cfu/mL
cfu/mL, contact time 7 day ([2]; 500 ppm, Table 1): 30,000 cfu/mL
performance against the BIT biocide when measuring log reduction ([2]; 500 ppm, Table 1): performed at least as well as the BIT biocide
Log Red, contact time 1 day ([2]; 500 ppm, Table 2): 0
Log Red, contact time 3 day ([2]; 500 ppm, Table 2): 2
Log Red, contact time 7 day ([2]; 500 ppm, Table 2): 4
Log Red, contact time 14 day ([2]; 500 ppm, Table 2): 4
Log Red, contact time 21 day ([2]; 500 ppm, Table 2): 5
Log Red, contact time 28 day ([2]; 500 ppm, Table 2): 4
cfu/mL, contact time 1 day ([2]; 500 ppm, Table 2): 19,630,000 cfu/mL
cfu/mL, contact time 3 day ([2]; 500 ppm, Table 2): 780,002 cfu/mL
cfu/mL, contact time 7 day ([2]; 500 ppm, Table 2): 4,000 cfu/mL
cfu/mL, contact time 14 day ([2]; 500 ppm, Table 2): 3,000 cfu/mL
cfu/mL, contact time 21 day ([2]; 500 ppm, Table 2): 1,800 cfu/mL
cfu/mL, contact time 28 day ([2]; 500 ppm, Table 2): 1,800 cfu/mL
Log Red, contact time 1 day ([2]; 1000 ppm, Table 1): 0
Log Red, contact time 3 day ([2]; 1000 ppm, Table 1): 1
Log Red, contact time 7 day ([2]; 1000 ppm, Table 1): 5
cfu/mL, contact time 1 day ([2]; 1000 ppm, Table 1): 16,880,000 cfu/mL
cfu/mL, contact time 3 day ([2]; 1000 ppm, Table 1): 2,200,000 cfu/mL
cfu/mL, contact time 7 day ([2]; 1000 ppm, Table 1): 1,000 cfu/mL
performance against the BIT biocide when measuring log reduction ([2]; 1000 ppm, Table 1): far superior
Log Red, contact time 1 day ([2]; 1000 ppm, Table 2): 0
Log Red, contact time 3 day ([2]; 1000 ppm, Table 2): 4
Log Red, contact time 7 day ([2]; 1000 ppm, Table 2): 4
Log Red, contact time 14 day ([2]; 1000 ppm, Table 2): 4
Log Red, contact time 21 day ([2]; 1000 ppm, Table 2): 5
Log Red, contact time 28 day ([2]; 1000 ppm, Table 2): 4
cfu/mL, contact time 1 day ([2]; 1000 ppm, Table 2): 12,560,000 cfu/mL
cfu/mL, contact time 3 day ([2]; 1000 ppm, Table 2): 4,800 cfu/mL
cfu/mL, contact time 7 day ([2]; 1000 ppm, Table 2): 2,400 cfu/mL
cfu/mL, contact time 14 day ([2]; 1000 ppm, Table 2): 2,600 cfu/mL
cfu/mL, contact time 21 day ([2]; 1000 ppm, Table 2): 900 cfu/mL
cfu/mL, contact time 28 day ([2]; 1000 ppm, Table 2): 900 cfu/mL
Log Red, contact time 1 day ([2]; 1000 ppm, Table 3): 3
Log Red, contact time 3 day ([2]; 1000 ppm, Table 3): 2
Log Red, contact time 7 day ([2]; 1000 ppm, Table 3): 2
Log Red, contact time 14 day ([2]; 1000 ppm, Table 3): 3
Log Red, contact time 21 day ([2]; 1000 ppm, Table 3): 2
Log Red, contact time 28 day ([2]; 1000 ppm, Table 3): 2
cfu/mL, contact time 1 day ([2]; 1000 ppm, Table 3): 200 cfu/mL
cfu/mL, contact time 3 day ([2]; 1000 ppm, Table 3): 100 cfu/mL
cfu/mL, contact time 7 day ([2]; 1000 ppm, Table 3): 100 cfu/mL
cfu/mL, contact time 14 day ([2]; 1000 ppm, Table 3): 100 cfu/mL
cfu/mL, contact time 21 day ([2]; 1000 ppm, Table 3): 100 cfu/mL
cfu/mL, contact time 28 day ([2]; 1000 ppm, Table 3): 100 cfu/mL
Log Red, contact time 1 day ([2]; 1500 ppm, Table 3): 3
Log Red, contact time 3 day ([2]; 1500 ppm, Table 3): 2
Log Red, contact time 7 day ([2]; 1500 ppm, Table 3): 2
Log Red, contact time 14 day ([2]; 1500 ppm, Table 3): 3
Log Red, contact time 21 day ([2]; 1500 ppm, Table 3): 2
Log Red, contact time 28 day ([2]; 1500 ppm, Table 3): 2
cfu/mL, contact time 1 day ([2]; 1500 ppm, Table 3): 100 cfu/mL
cfu/mL, contact time 3 day ([2]; 1500 ppm, Table 3): 100 cfu/mL
cfu/mL, contact time 7 day ([2]; 1500 ppm, Table 3): 100 cfu/mL
cfu/mL, contact time 14 day ([2]; 1500 ppm, Table 3): 100 cfu/mL
cfu/mL, contact time 21 day ([2]; 1500 ppm, Table 3): 100 cfu/mL
cfu/mL, contact time 28 day ([2]; 1500 ppm, Table 3): 100 cfu/mL
biocide efficacy compared with known biocides [2]: comparable biocide efficacy as compared to known biocides
biocide effectiveness compared with thione ([2]; Table 3, up to the 28 day testing, not challenge testing, 1000 and 1500 ppm): performed on a par with the thione

O=CCCCC=O [50% Glute, glutaraldehyde, reference compound]
Log Red, 21 day Challenge ([1]; 400 ppm, Table 2): 6
Log Red, 28 day Challenge ([1]; 400 ppm, Table 2): 5
cfu/mL, 21 day Challenge ([1]; 400 ppm, Table 2): 100 cfu/mL
cfu/mL, 28 day Challenge ([1]; 400 ppm, Table 2): 100 cfu/mL
Log Red, contact time 1 day ([2]; 400 ppm, Table 2): 5
Log Red, contact time 3 day ([2]; 400 ppm, Table 2): 5
Log Red, contact time 7 day ([2]; 400 ppm, Table 2): 6
Log Red, contact time 14 day ([2]; 400 ppm, Table 2): 6
Log Red, contact time 21 day ([2]; 400 ppm, Table 2): 6
Log Red, contact time 28 day ([2]; 400 ppm, Table 2): 5
cfu/mL, contact time 1 day ([2]; 400 ppm, Table 2): 100 cfu/mL
cfu/mL, contact time 3 day ([2]; 400 ppm, Table 2): 100 cfu/mL
cfu/mL, contact time 7 day ([2]; 400 ppm, Table 2): 100 cfu/mL
cfu/mL, contact time 14 day ([2]; 400 ppm, Table 2): 100 cfu/mL
cfu/mL, contact time 21 day ([2]; 400 ppm, Table 2): 100 cfu/mL
cfu/mL, contact time 28 day ([2]; 400 ppm, Table 2): 100 cfu/mL
biocide efficacy compared with known biocides [2]: best performer
